Data published in US6828144B2, “Method of observing vasculogenesis in vitro using cultured allantois” (Wisconsin Alumni Research Foundation, priority 1996, dated 2004).
Read-outs that look alike come from different tables or passages of the source.

Test system: headfold-stage allantoic explants
Conditions: for formation / retention of vascular channels in explants: 5% FCS, feeding at 24 hour intervals, by 72 hours
Experimental: At the onset of culture, or at varying times thereafter, known test compounds, such as Vascular Endothelial Growth Factor (VEGF, R & D Systems, Minneapolis, Minn.), are prepared according to the manufacturer's instructions and added to the cultures in concentrations recommended by the manufacturer (e.g., 1-20 ng VEGF/ml culture medium) or, in the case of unknown test compounds, in varying concentrations to determine the one that either inhibits or enhances vasculogenesis.
To test that possibility, recombinant VEGE (1-10 ng/ml culture medium) was added to explants at the start of culture in 5% FOS.
For survival and vascularization, allantoises were mouth-aspirated into a hand-pulled glass microcapillary (K. M. Downs and R. L. Gardner, supra, 1995; K. M. Downs, et al., supra, 1998) and either cultured in suspension as previously described (K. M. Downs, et al., supra, 1998) or placed individually (i) into wells of 24-well tissue-culture plates (Falcon 3047), (ii) onto glass cover slips (12 mm, Fisher) coated for 30 minutes in filtered (0.45 μm, cellulose acetate) poly-D-lysine (1 mg/ml double processed tissue culture water; Sigma) inserted into wells of 24-well tissue-culture plates and rinsed 34 times with sterile water, (iii) into sterile 8-well plastic chamber slides (Lab-Tek, Nunc), or (iv) into 8-well glass chamber slides some of which were coated in poly-D-lysine. Allantoises were cultured in 0.5 ml (24-well tissue-culture dishes or Falcon culture tubes (K. M. Downs and R. L. Gardner, supra, 1995) or 0.4 ml (8-well chamber slides) of culture medium (Dulbecco's modified Eagle's medium (DMEM) containing either equal parts of immediately-centrifuged and heat-inactivated rat serum as previously described (K. M. Downs and R. L. Gardner, supra, 1995) or 5, 10 and 20% heat-inactivated fetal calf serum (Gibco-BRL; frozen and thawed twice before using) for 24-72 hours at 37° C. in 6.2% CO2 in air. For culture longer than 24 hours, allantoises were given completely fresh medium at 24-hour intervals. In some experiments, erythrosin B (Fisher; 0.04% in phosphate-buffered saline (PBS); H. J. Phillips and J. E. Terryberry, Exp. Cell Res. 13:341-347, 1957) was diluted 1:1 in dissection medium to verify allantoic cell viability. Vascular Endothelial Growth Factor (R & D System,s Minneapolis, Minn.) was prepared according to the manufacturer's instructions and was added to culture medium containing 5% FCS in concentrations of 1-20 ng/ml.
To test that possibility, recombinant VEGF (1-10 ng/ml culture medium) was added to explants at the start of culture in 5% FCS.

VEGF
formation / retention of vascular channels in explants (VEGF 1 ng/ml): devoid of such channels
cell survival (cell retention) (VEGF 2-10 ng/ml in 5% FCS, untreated explants in FCS alone 36%): 78%
formation / retention of vascular channels in explants (VEGF 2-10 ng/ml, added at start of culture): retention of Flk-1 containing vascular channels and overlying VCAM-1 positive cells
formation / retention of vascular channels in explants (VEGF 2-10 ng/ml, added at start of culture, listed as Vascular Endothelial Growth Factor): formation of many vascular channels containing Flk-1 and Flt-1
survival of angioblasts and morphogenesis into vessels (explants cultured in low serum): promoted their survival and morphogenesis into vessels
